Literature values in patent publication US5258406A, “Sulfonimidamides” (priority 1992, dated 1993).

Conditions: Johnson et al., J. Org. Chem. 44, 2055 (1979); cited from earlier work

For `CCCCNC(=O)NS(=N)(=O)c1ccc(C)cc1` (stereo not shown) [compound 16, N-butyl-N'-(p-toluenesulfonimidoyl)urea], the “activity in an antidiabetic screen” value is listed as “inactive”.
